Measured values published in article PMC8815882, “Screening the pandemic response box identified benzimidazole carbamates, Olorofim and ravuconazole as promising drug candidates for the treatment of eumycetoma” (PLoS Neglected Tropical Diseases, 2022).
Converted amounts (≈) assume the structure as drawn. Like-named read-outs stand apart in the source and are kept apart here.

Assays:
M. mycetomatis MM55 = assay: IC50 determination, 2-fold dilution series 16 to 0.03125 μM; format: cell-based, Madurella mycetomatis; conditions: for Drug static or cidal: M. mycetomatis; for IC90 / IC50: Madurella mycetomatis
[1] = tested on: ten different M. mycetomatis isolates; assay: MIC / MIC50 determination (XTT) in ten M. mycetomatis isolates; format: cell-based, Madurella mycetomatis; conditions: Madurella mycetomatis
[2] = tested on: M. mycetomatis genome strain MM55; assay: CLSI M38-A2 based in vitro susceptibility screening (XTT or resazurin), growth at fixed concentration; format: cell-based, Madurella mycetomatis; conditions: Madurella mycetomatis; for Percent fungal survival at 100 µM: replicate 2, M. mycetomatis MM55, read-out: Percentage survival at 100um, 100 uM A (second replicate column)
[3] = tested on: M. mycetomatis isolate MM55; assay: M. mycetomatis grain infection model in G. mellonella larvae, survival; format: in vivo, Galleria mellonella; set-up: In vivo efficacy, Larvae survival %: concentration or dose not given beside the values; conditions: G. mellonella larvae infected with M. mycetomatis
[4] = MM55, mean of replicates, read-out: IC90 mean
[5] = MM55, replicate 1, read-out: IC90 1 um
[6] = MM55, replicate 2, read-out: IC90 2 um
[7] = MM55, replicate 3, read-out: IC90 3 um
[8] = over the tested M. mycetomatis isolates, read-out: MIC50 mean
[9] = isolate CBS247.48, read-out: MIC CBS247.48
[10] = isolate MM55, read-out: MIC MM55
[11] = isolate ParijsAl1, read-out: MIC ParijsAl1
[12] = isolate Peru72012, read-out: MIC Peru72012
[13] = mean of three, M. mycetomatis MM55, read-out: Percentage survival at 25um, 25 uM mean
[14] = replicate A, M. mycetomatis MM55, read-out: Percentage survival at 25um, 25 um A
[15] = replicate B, M. mycetomatis MM55, read-out: Percentage survival at 25um, 25 uM B
[16] = replicate C, M. mycetomatis MM55, read-out: Percentage survival at 25um, 25 uM C
[17] = mean of three, M. mycetomatis MM55, read-out: Percentage survival at 100um, 100 uM mean
[18] = replicate 1, M. mycetomatis MM55, read-out: Percentage survival at 100um, 100 uM A (first replicate column)
[19] = replicate 3, M. mycetomatis MM55, read-out: Percentage survival at 100um, 100 uM A (third replicate column)

Structure (SMILES)	Drug static or cidal (M. mycetomatis MM55)	IC90 (M. mycetomatis MM55; [4]) [µM]	IC90 (M. mycetomatis MM55; [5]) [µM]	IC90 (M. mycetomatis MM55; [6]) [µM]	IC90 (M. mycetomatis MM55; [7]) [µM]	MIC50 [1, 8] [µM]	MIC [1, 9] [µM]	MIC [1, 10] [µM]	MIC ([1]; isolate P1, read-out: MIC P1) [µM]	MIC [1, 11] [µM]	MIC [1, 12] [µM]	MIC ([1]; isolate So1, read-out: MIC So1) [µM]	MIC ([1]; isolate i1, read-out: MIC i1) [µM]	MIC ([1]; isolate i11, read-out: MIC i11) [µM]	activity at 25 µM [2, 13] [%]	activity at 25 µM [2, 14] [%]	activity at 25 µM [2, 15] [%]	activity at 25 µM [2, 16] [%]	activity at 100 µM [2, 17] [%]	activity at 100 µM [2, 18] [%]	further results
Clc1ccc(COC(Cn2ccnc2)c2ccc(Cl)cc2Cl)c(Cl)c1 (centres unmarked) [MMV002722]	Cidal	1.23	0.75	2.6	0.34	0.125 (≈ 0.052 µg/mL)	0.125 (≈ 0.052 µg/mL)	0.25 (≈ 0.104 µg/mL)	0.06 (≈ 0.025 µg/mL)	> 0.03	0.06 (≈ 0.025 µg/mL)	0.125 (≈ 0.052 µg/mL)	> 0.03	0.5 (≈ 0.208 µg/mL)	1.83	0.653	1.37	3.48	8.62	1.56	Percent fungal survival at 100 µM [2]: 6.95%; activity at 100 µM [2, 19]: 17.4%; In vivo efficacy, Enhanced survival compared to control? [3]: no; In vivo efficacy, Larvae survival % [3]: 8.9%
CCC(C)(C)c1ccc(CC(C)CN2C[C@@H](C)O[C@@H](C)C2)cc1 (some centres unmarked) [MMV1634358, Amorolfine, reference compound]	Static	10.7	4.65	22.1	5.4	4 (≈ 1.27 µg/mL)	4 (≈ 1.27 µg/mL)	2 (≈ 0.635 µg/mL)	> 16	0.25 (≈ 0.0794 µg/mL)	16 (≈ 5.08 µg/mL)	2 (≈ 0.635 µg/mL)	2 (≈ 0.635 µg/mL)	16 (≈ 5.08 µg/mL)	0.888	-0.194	0.287	2.57	8.96	0.903	IC50 (M. mycetomatis MM55; MM55, Table 2, M. mycetomatis MM55, read-out: IC50): 5.72 µM; IC50 (M. mycetomatis MM55; MM55, mean of replicates, read-out: IC50 mean): 5.72 µM; IC50 (M. mycetomatis MM55; MM55, replicate 1, read-out: IC50 1 um): 2.45 µM; IC50 (M. mycetomatis MM55; MM55, replicate 2, read-out: IC50 2 um): 11.7 µM; IC50 (M. mycetomatis MM55; MM55, replicate 3, read-out: IC50 3 um): 3 µM; MIC50 ([1]; median MIC over ten M. mycetomatis isolates, no asterisk, read-out: MIC50): 4 µM (≈ 1.27 µg/mL); MIC ([1]; isolate MM14, read-out: MIC MM14): 4 µM (≈ 1.27 µg/mL); MIC ([1]; isolate MM45, read-out: MIC MM45): 4 µM (≈ 1.27 µg/mL); Percent fungal survival at 100 µM [2]: 2.35%; activity at 100 µM [2, 19]: 23.6%; In vivo efficacy, Enhanced survival compared to control? [3]: no; In vivo efficacy, Larvae survival % [3]: 11.1%
